The record followed here is patent publication US10806746B2, “Di- and tri-cationic glycosylated antitumor ether lipids, L-gucosylated gaels and rhamnose-linked gaels as cytotoxic agents against epithelial cancer cells and cancer stem cells” (The University of Manitoba, priority 2014, dated 2020).

Read-outs that look alike come from different tables or passages of the source. Bounds are passed on as bounds.

One series has as its system PC3 cells. The experiment in a line: MTS viability assay, PC3 prostate cancer cells. The class given is cell-based, human. The gist of the method: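 PC3 cells in F12K with 10% FBS were exposed to compounds (0-30 μM) for 48 h, starting 24 h after seeding. Viability was read by MTS reagent (20% vol/vol, 1-4 h) at OD490, blanked against cell-free wells; mean±SD of 6 independent determinations.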
A general note: Tetrazolium dyes change colour on reduction, which living cells bring about.

The test system of a further series is BT-474 cells. The experiment in a line: MTS viability assay, BT-474 breast cancer cells. The class given is cell-based, human. The essentials:
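BT-474 cells in DMEM/F12 with 10% FBS, seeded 24 h before 48 h exposure to compounds (0-30 μM). Viability read as OD490 after 1-4 h with MTS reagent (20% vol/vol), blanked against cell-free wells; mean±SD of 6 independent determinations.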

For series [1], the system named is EOC 216H primary ovarian cancer cells. The experiment in a line: MTS viability, primary epithelial ovarian cancer cells EOC 216H. To be noted: Homo sapiens. The class given is cell-based. Here is the method:
(§1) FIG. 2L to 2N. Effects of compounds 1, 56 or 69 on the viability of primary epithelial ovarian cancer cells grown as adherent and spheroid cultures. EOC cells were isolated from the ascites of ovarian cancer patients. Cells were seeded in regular 96-well plates and grown as adherent cultures. 24 h after seeding the cells were incubated with compounds 1, 56, or 69 for 48 h and the viability of the cells were determined with the MTS assay. Spheroid cultures were obtained by seeding the cells in ultra-low adhesion 96-well plates for 3 days. The spheroids were incubated with compounds 1, 56 or 69 for 3 days. At the end of the incubations, MTS reagent (20% vol/vol) was added and the plates were incubated for 1-4 h. The OD490 was read with a plate reader. Wells with media but no cells were treated in similar fashion and the values utilized as blank. The results represent the mean±standard deviation of 6 independent determinations.
(§2) 4.3.1.2. Isolation of primary epithelial ovarian cancer cells (EOC) from ascites fluid of ovarian cancer patients. The isolation of EOC cells from the ascites fluid of ovarian cancer patients was performed as described by Shepherd et al 2007, Nature protocols 1, 2643-2649). The cells were grown in DMEM/F12 supplemented with 10% FBS medium. 4.3.2. Isolation of breast cancer stem cells from BT-474, prostate cancer stem cells from DU145, and ovarian cancer stem cells from A2780cp cell lines and determination of the effect of GAELs on the viability of the cancer stem cells.

Series [2] concerns EOC216B primary ovarian cancer cells. The experiment in a line: MTS viability, primary epithelial ovarian cancer cells EOC216B. The class given is cell-based. The conditions noted are these: Homo sapiens. Here is the method:
as §1, §2

The test system of series [3] is EOC258 primary ovarian cancer cells. The experiment in a line: MTS viability, primary epithelial ovarian cancer cells EOC258. The class given is cell-based. The conditions noted are these: Homo sapiens. The protocol:
as §1, §2

For series [4], the system named is EOC260 primary ovarian cancer cells. The experiment in a line: MTS viability, primary epithelial ovarian cancer cells EOC260. The class given is cell-based. To be noted: Homo sapiens; adherent culture, 48 h. The protocol:
as §1
4.3.1.2. Isolation of primary epithelial ovarian cancer cells (EOC) from ascites fluid of ovarian cancer patients. The isolation of EOC cells from the ascites fluid of ovarian cancer patients was performed as described by Shepherd et al 2007, Nature protocols 1, 2643-2649). The cells were grown in DMEM/F12 supplemented with 10% FBS medium. 4.3.2. […]

Series [5] has as its system BT-474, JIMT-1, MDA-MB-231 (breast), DU145, PC3 (prostate), MiaPaCa2 (pancreas). The experiment in a line: MTS viability, panel of epithelial cancer cell lines (ranges over the cell lines). The class given is cell-based, human. The conditions noted are these: for CC50: read-out: CC50 values, range depending on the cell line. The protocol:
To determine the effect of compounds 1-10 on the viability of the epithelial cancer cell lines, exponentially growing cells, BT-474, JIMT-1, MDA-MB-231 (breast), DU145, PC3 (prostate), MiaPaCa2 (pancreas) were incubated with varying concentrations of 1-8 (0-30 μM) for 48 h followed by viability assays with the MTS reagent.
The effects of the GAELs on the viability of the various epithelial cancer cell lines was determined as previously described. Briefly, equal numbers of the cells were dispersed into 96-well plates. After 24 h, the cells were incubated with the compounds (0-30 μM) for 48 h. At the end of the incubation, MTS reagent (20% vol/vol) was added and the plates were incubated for 1-4 h. The OD490 was read with a plate reader. Wells with media but no cells were treated in similar fashion and the values utilized as blank. The results represent the mean±standard deviation of 6 independent determinations.

Where [6] appears, read: Homo sapiens, PC-3, Table 5, 48 h, MTS, read-out: CC50 PC3.
Setting [7] is: Homo sapiens, PC-3, Table 5, 48 h, MTS, read-out: CC90 PC3.
Setting [8] is: adherent culture, 48 h, read-out: CC50 values EOC 216H Adherent.
The mark [9] stands for this setting: spheroid culture, 3 days, read-out: CC50 values EOC 216H Spheroid.
[10] abbreviates: 72 h, spheroid culture, 3 days, read-out: CC50 values EOC216B Spheroid.
[11] abbreviates: adherent culture, 48 h, read-out: CC50 values EOC216B Adherent.
Where [12] appears, read: 72 h, spheroid culture, 3 days, read-out: CC50 values EOC258 Spheroid.
Where [13] appears, read: adherent culture, 48 h, read-out: CC50 values EOC258 Adherent.
[14] abbreviates: Homo sapiens, range over the cell lines tested, 48 h.
Setting [15] is: Table 1A, 48 h, MTS, read-out: CC50 values PC3.
Setting [16] is: Table 1B, 48 h, MTS, read-out: CC90 values PC3.
[17] abbreviates: Table 1A, 48 h, MTS, read-out: CC50 values BT474.
Where [18] appears, read: Table 1B, 48 h, MTS, read-out: CC90 values BT474.
Setting [19] is: range over the cell lines tested, 48 h.

In general, CC50 refers to the concentration at which the toxic effect on the cells reaches its halfway point. For `CCCCCCCCCCCCCCCCOC[C@H](CO[C@H]1O[C@H](CN)[C@@H](O)[C@H](O)[C@H]1N)OC` [Compound 1, 1-O-Hexadecyl-2-O-methyl-3-O-(2′,6′-diamino-2′,6′-dideoxy-α-D-glucopyranosyl)-sn-glycerol], the CC50 was 3.5 µM in the series on PC3 cells (Homo sapiens, PC-3, Table 1A, 48 h, MTS, read-out: CC50 values PC3); 3.5 µM in the series with PC3 cells (setting [6]); 7.5 µM in the series with BT-474 cells (Homo sapiens, BT-474, Table 1A, 48 h, MTS, read-out: CC50 values BT474); 7.5 µM in the series on BT-474 cells (Homo sapiens, BT-474, Table 5, 48 h, MTS, read-out: CC50 B1474); 150 nM in series [1] (setting [8]); 210 nM in series [1] (setting [9]). Also, the CC50 in series [2] (setting [10]) is 600 nM; in series [2] (setting [11]), 240 nM; in series [3] (setting [12]), 600 nM; in series [3] (setting [13]) it was 300 nM; in series [4], 200 nM; in series [5] (setting [14]), 3 to 7.5 µM. In addition, the CC90 was 6 µM in the series with PC3 cells (Homo sapiens, PC-3, Table 1B, 48 h, MTS, read-out: CC90 values PC3); 6 µM in the series on PC3 cells (setting [7]); 9.5 µM in the series with BT-474 cells (Homo sapiens, BT-474, Table 1B, 48 h, MTS, read-out: CC90 values BT474); 4.5 to 9.5 µM in series [5] (Homo sapiens, range over the cell lines tested, 48 h, read-out: CC90 (90% loss of cell viability), range depending on cell lines).

`CCCCCCCCCCCCCCCCOCCCO[C@@H]1O[C@H](CN)[C@@H](O)[C@H](O)[C@H]1N` [Compound 4, 1-O-Hexadecyl-2-deoxy-3-O-(2′6′-diamino-2′,6′-dideoxy-β-D-glucopyranosyl)-sn-glycerol]: the CC50 in the series with PC3 cells (setting [15]) is 8 µM; with BT-474 cells (setting [17]), 8.5 µM; in series [5] (setting [19]), 4 to 8.5 µM. Further, the CC90 in the series with PC3 cells (setting [16]) was found to be 14 µM; in the series with BT-474 cells (setting [18]), 17.5 µM.

As for `CCCCCCCCCCCCCCCCOCC(CO[C@@H]1O[C@H](CN)[C@@H](O)[C@H](O)[C@H]1N)O[C@@H]1O[C@H](CN)[C@@H](O)[C@H](O)[C@H]1N` (stereo partly drawn) [Compound 5, 1-O-Hexadecyloxy-2S/R, 3-di(-2′,6′-diamino-2′, 6′-dideoxy-β-D-glucopyranosyl)-glycerol], the CC50 (in the series with PC3 cells (setting [15]); in the series on BT-474 cells (setting [17]); in series [5] (setting [19])) was > 30 µM in each case. For the same compound, the CC90 with PC3 cells (setting [16]) and in the series with BT-474 cells (setting [18]) was > 30 µM each time.

Take `CCCCCCCCCCCCCCCCOC[C@@H](CN=[N+]=[N-])O[C@@H]1O[C@H](CO)[C@@H](O)[C@H](O)[C@H]1N` [Compound 6, 1-O-Hexadecyloxy-2R-(2′-amino-2′-deoxy-β-D-glucopyranosyl)-3-azido glycerol]: the CC50 with PC3 cells (setting [15]) was 6 µM; in the series with PC3 cells (read-out: CC50 against PC-3 cell lines) it was 6 µM; in the series on BT-474 cells (setting [17]), 22 µM; with BT-474 cells (read-out: CC50 against BT 474 cell lines), 22 µM; in series [5] (setting [19]) it was 6 to 22 µM. Besides, the CC90 in the series on PC3 cells (setting [16]) is 15 µM; with BT-474 cells (setting [18]), 28 µM.

On to `CCCCCCCCCCCCCCCCOCC(CO[C@@H]1OC(CO)[C@H](O)[C@H](O)C1N)OC` (stereo partly drawn) [Compound 69], for which the CC50 in the series on PC3 cells (Homo sapiens, PC-3, Table 2A, 48 h, MTS, read-out: CC50 values PC3) was 12.5 µM; with PC3 cells (setting [6]), 12.5 µM; in series [1] (setting [8]), 1020 nM; in series [1] (setting [9]), 1500 nM; in series [2] (setting [10]), 1250 nM; in series [2] (setting [11]) it was 560 nM. The CC50 in series [3] (setting [12]) is 1200 nM; in series [3] (setting [13]) it was 1400 nM; in series [4], 300 nM; in series [5] (setting [14]) it was 6.5 to 12.5 µM. The CC90 came to 16 µM with PC3 cells (Homo sapiens, PC-3, Table 2B, 48 h, MTS, read-out: CC90 values PC3) and 16 µM with PC3 cells (setting [7]).

`CCCCCCCCCCCCCCCCOC[C@H](COC1O[C@H](CNCCCCCCCCCCCCN)[C@@H](O)[C@H](O)[C@H]1N)OC` (stereo partly drawn) [Compound 73, 1-O-Hexadecyl-2-O-methyl-3-O-[6′-N-(12-aminododecyl)-2′,6′-diamino-2′,6′-dideoxy-glucopyranoside]-sn-glycerol]: the CC50 with PC3 cells (Table 6, 48 h, MTS, read-out: PC3 CC50) was 2 µM; with BT-474 cells (Table 6, 48 h, MTS, read-out: BT474 CC50), 1.6 µM; in series [5] (setting [19]) it was 1.5 to 4 µM. Also, the CC90 in the series on PC3 cells (Table 6, 48 h, MTS, read-out: PC3 CC90) came out at 3.2 µM; with BT-474 cells (Table 6, 48 h, MTS, read-out: BT474 CC90), 4.2 µM. Moreover, the “cytotoxicity against all cell lines examined” value in series [5] (tricationic GAELs, FIG. 2O, Table 6) is on record as “cytotoxic”.
